These results are taken from patent publication US10336732B2, “1-heterocyclyl isochromanyl compounds and analogs for treating CNS disorders” (Sunovion Pharmaceuticals Inc., priority 2015, dated 2019).

The subject of the test is mice. The test is described as follows: Neuropharmacological assay (SmartCube), behavioral signature of compound-treated mice. Type of test: in vivo. The note with it: i.p. 15 min before behavioral test, most efficacious dose(s) of 3 doses. In outline:
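Mice received compound i.p. in NMP/PEG/propylene glycol vehicle at 3 doses, 15 min before testing. Video-captured behavior was algorithmically compared with a reference-drug signature database.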

For the compound `Fc1ccc2c(c1)CO[C@H]2[C@H]1CCCN1` [Compound I-121, (R)-2-((R)-5-fluoro-1,3-dihydroisobenzofuran-1-yl)pyrrolidine], the “AD: ADHD (probability that behavioral signature matches class)” value (shortened to “AD: ADHD”) is recorded as “+ (LOQ ≤ + <5%)”, the “AG: analgesic (probability that behavioral signature matches class)” value (from here on “AG: analgesic”) is on record as “+++ (25% ≤ +++ <50%)”, the “AX: anxiolytic (probability that behavioral signature matches class)” value (from here on “AX: anxiolytic”) is given as “+++ (25% ≤ +++ <50%)” and the “CE: cognitive enhancer (probability that behavioral signature matches class)” value (shortened to “CE: cognitive enhancer”) is recorded as “++ (5% ≤ ++ <25%)”. The “DP: anti-depressant (probability that behavioral signature matches class)” value (“DP: anti-depressant” below) is “++ (5% ≤ ++ <25%)”, the “HA: hallucinogen (probability that behavioral signature matches class)” value (shortened to “HA: hallucinogen”) is “+ (LOQ ≤ + <5%)”, the “MS: mood stabilizer (probability that behavioral signature matches class)” value (from here on “MS: mood stabilizer”) was “+ (LOQ ≤ + <5%)” and the “PS: anti-psychotic (probability that behavioral signature matches class)” value (“PS: anti-psychotic” below) is on record as “++ (5% ≤ ++ <25%)”. The “SD: sedative hypnotic (probability that behavioral signature matches class)” value (from here on “SD: sedative hypnotic”) is “++ (5% ≤ ++ <25%)”, the “UN: uncharacterized CNS activity (probability that behavioral signature matches class)” value (from here on “UN: uncharacterized CNS activity”) is reported as “++ (5% ≤ ++ <25%)” and the “XG: anxiogenic (probability that behavioral signature matches class)” value (“XG: anxiogenic” for short) is listed as “+ (LOQ ≤ + <5%)”.
As for `C[C@@]1([C@@H]2CCCN2)OCc2cc(F)ccc21` [Compound I-122, (S)-2-((R)-5-fluoro-1-methyl-1,3-dihydroisobenzofuran-1-yl)pyrrolidine], the “AD: ADHD” value is on record as “+ (LOQ ≤ + <5%)”, the “AG: analgesic” value is “+ (LOQ ≤ + <5%)”, the “AX: anxiolytic” value was “++ (5% ≤ ++ <25%)” and the “CE: cognitive enhancer” value is reported as “+ (LOQ ≤ + <5%)”. The “DP: anti-depressant” value is “++ (5% ≤ ++ <25%)”, the “HA: hallucinogen” value is “+ (LOQ ≤ + <5%)”, the “MS: mood stabilizer” value is “+ (LOQ ≤ + <5%)” and the “PS: anti-psychotic” value is recorded as “+ (LOQ ≤ + <5%)”. For the same compound, the “SD: sedative hypnotic” value was “+ (LOQ ≤ + <5%)”, the “UN: uncharacterized CNS activity” value is given as “+ (LOQ ≤ + <5%)” and the “XG: anxiogenic” value is “+ (LOQ ≤ + <5%)”.
`C[C@]1([C@@H]2CCCN2)OCc2cc(F)ccc21` [Compound I-123, (S)-2-((S)-5-fluoro-1-methyl-1,3-dihydroisobenzofuran-1-yl)pyrrolidine]: the “AD: ADHD” value is “+ (LOQ ≤ + <5%)”, the “AG: analgesic” value was “+ (LOQ ≤ + <5%)”, the “AX: anxiolytic” value is on record as “+ (LOQ ≤ + <5%)” and the “CE: cognitive enhancer” value is recorded as “+ (LOQ ≤ + <5%)”. Besides, the “DP: anti-depressant” value is reported as “+ (LOQ ≤ + <5%)”, the “HA: hallucinogen” value is reported as “+ (LOQ ≤ + <5%)”, the “MS: mood stabilizer” value was “+ (LOQ ≤ + <5%)” and the “PS: anti-psychotic” value is “+ (LOQ ≤ + <5%)”. In addition, the “SD: sedative hypnotic” value is “+ (LOQ ≤ + <5%)”, the “UN: uncharacterized CNS activity” value is “+ (LOQ ≤ + <5%)” and the “XG: anxiogenic” value is “+ (LOQ ≤ + <5%)”.
